The experiment has as its system IL-1β production in PMA-differentiated THP-1 cells. The experiment can be described thus: IL-1β production in PMA-differentiated THP-1 cells stimulated with gramicidin (hTHP-1 assay containing 2% fetal bovine serum). In kind it is cell-based, human. The following applies: Homo sapiens, THP-1, Table B1, 2% fetal bovine serum, read-out: hTHP-1 IC50 (Average IC50 of compounds in hTHP-1 assay). The procedure, abridged: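 THP-1 cells were differentiated with PMA 20 ng/ml for 16-18 h, then plated at 50,000 cells/well in RPMI with 2% FBS. They were preincubated 1 h with compound (100–0.0017 μM final, 0.37% DMSO), then stimulated with gramicidin 5 μM for 2 h. Supernatant IL-1β was measured by HTRF.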

Results on 28 compounds are retold here after US20230059136A1, “THE COMPOUNDS AND COMPOSITIONS FOR TREATING CONDITIONS ASSOCIATED WITH NLRP ACTIVITY” (Novartis AG, priority 2018, published 2023).

Each structure is given as a SMILES string. Read-outs that look alike come from different tables or passages of the source.

In general, IC50 refers to the concentration needed to halve the response being measured. Consider `CC(C)c1cc(CCC2CCCCC2)cc(C(C)C)c1CC(=O)N=S(N)(=O)c1cc(C(C)(C)O)n(-c2ccccc2)n1` (stereo not shown) [Example 228, N-(amino(5-(2-hydroxypropan-2-yl)-1-phenyl-1H-pyrazol-3-yl)(oxo)-λ^6-sulfaneylidene)-2-(4-(2-cyclohexylethyl)-2,6-diisopropylphenyl)acetamide], for which, where the note is “class symbols”, the IC50 lay in the range of 5 to 30 µM.
Still for that read-out and setting: the figure for `CC(C)c1cc(C#CC2CCOCC2)cc(C(C)C)c1CC(=O)N=S(N)(=O)c1cc(C(C)(C)O)n(-c2ccccc2)n1` (stereo not shown) [Example 229, N-(amino(5-(2-hydroxypropan-2-yl)-1-phenyl-1H-pyrazol-3-yl)(oxo)-λ^6-sulfaneylidene)-2-(2,6-diisopropyl-4-((tetrahydro-2H-pyran-4-yl)ethynyl)phenyl)acetamide] is 1 to 5 µM; for `CC(C)c1cc(C(F)F)cc(C(C)C)c1CC(=O)N=S(N)(=O)c1ccc(CN(C)C)nc1` (stereo not shown) [Example 230, N-(amino(6-((dimethylamino)methyl)pyridin-3-yl)(oxo)-λ^6-sulfaneylidene)-2-(4-(difluoromethyl)-2,6-diisopropylphenyl)acetamide] it is 1 to 5 µM.
For `CC(C)c1cc2c(c(C(C)C)c1CC(=O)N=[S@@](N)(=O)c1cnc(C(C)(C)O)s1)OC(F)(F)O2` [Example 231], the IC50 (class symbols) lay in the range of 0.2 to 1 µM.
Regarding `CC(C)c1cc2c(cnn2C)c(C(C)C)c1CC(=O)N=[S@@](N)(=O)c1cnc(C(C)(C)O)s1` [Example 232, (R)-N-(amino(2-(2-hydroxypropan-2-yl)thiazol-5-yl)(oxo)-λ^6-sulfaneylidene)-2-(4,6-diisopropyl-1-methyl-1H-indazol-5-yl)acetamide], the IC50 (class symbols) lay in the range of 5 to 30 µM.
For the compound `Cc1c2c(cc(C3CC3)c1CC(=O)N=[S@@](N)(=O)c1cnc(C(C)(C)O)s1)CCC2` [Example 233, (R)-N-(amino(2-(2-hydroxypropan-2-yl)thiazol-5-yl)(oxo)-λ^6-sulfaneylidene)-2-(6-cyclopropyl-4-methyl-2,3-dihydro-1H-inden-5-yl)acetamide], the IC50 (class symbols) is 5 to 30 µM.
For the compound `COCc1cc(C(C)C)c(CC(=O)N=S(N)(=O)c2ncc(C(C)(C)O)s2)c(C(C)C)n1` (stereo not shown) [Example 236, N-(amino(5-(2-hydroxypropan-2-yl)thiazol-2-yl)(oxo)-λ^6-sulfaneylidene)-2-(2,4-diisopropyl-6-(methoxymethyl)pyridin-3-yl)acetamide], where the note is “class symbols”, the IC50 fell in the range of 1 to 5 µM.
In the case of `CC(C)c1cc(C#N)nc(C(C)C)c1CC(=O)NS(=N)(=O)c1sc(C(C)(C)O)nc1CO` (stereo not shown) [Example 237, 2-(6-cyano-2,4-diisopropylpyridin-3-yl)-N-(4-(hydroxymethyl)-2-(2-hydroxypropan-2-yl)thiazole-5-sulfonimidoyl)acetamide], the IC50 (class symbols) is 5 to 30 µM.
Consider `CC(C)c1cc(C#N)c(F)c(C(C)C)c1CC(=O)N=S(N)(=O)c1cnc(C(C)(O)CO)s1` (stereo not shown) [Example 238, N-(amino(2-(1,2-dihydroxypropan-2-yl)thiazol-5-yl)(oxo)-λ^6-sulfaneylidene)-2-(4-cyano-3-fluoro-2,6-diisopropylphenyl) acetamide], for which the IC50 (class symbols) was in the range of 1 to 5 µM.
Regarding `CC(C)c1cc(C#N)c(F)c(C(C)C)c1CC(=O)N=S(N)(=O)c1cc(C(C)(C)O)n(-c2ccccc2)n1` (stereo not shown) [Example 239, N-(amino(5-(2-hydroxypropan-2-yl)-1-phenyl-1H-pyrazol-3-yl)(oxo)-λ^6-sulfaneylidene)-2-(4-cyano-3-fluoro-2,6-diisopropylphenyl)acetamide], the IC50 (class symbols) was 1 to 5 µM.
As for `CC(C)c1cc(C#CC2CCCC2)cc(C(C)C)c1CC(=O)N=S(N)(=O)c1cc(C(C)(C)O)c(-c2ccccc2)s1` (stereo not shown) [Example 240, N-(amino(4-(2-hydroxypropan-2-yl)-5-phenylthiophen-2-yl)(oxo)-λ^6-sulfaneylidene)-2-(4-(cyclopentylethynyl)-2,6-diisopropylphenyl)acetamide], where the note is “class symbols”, the IC50 was in the range of 5 to 30 µM.
As to `CC(C)c1cc(COC2CCCC2)cc(C(C)C)c1CC(=O)N=S(N)(=O)c1cc(C(C)(C)O)n(-c2ccc(F)cc2)n1` (stereo not shown) [Example 241, N-(amino(1-(4-fluorophenyl)-5-(2-hydroxypropan-2-yl)-1H-pyrazol-3-yl)(oxo)-λ^6-sulfaneylidene)-2-(4-((cyclopentyloxy)methyl)-2,6-diisopropylphenyl)acetamide], the IC50 (class symbols) is 5 to 30 µM.
Regarding `CC(C)(O)c1ncc(S(N)(=O)=NC(=O)Cc2cc3c(c4c2CCC4)CCC3)s1` (stereo not shown) [Example 242, N-(amino(2-(2-hydroxypropan-2-yl)thiazol-5-yl)(oxo)-λ^6-sulfaneylidene)-2-(1,2,3,6,7,8-hexahydro-as-indacen-4-yl)acetamide], the IC50 (cells printed as numeric bound) was over 30 µM.
As for `CC(C)c1cc2c(c(C(C)C)c1CC(=O)N=S(N)(=O)c1ccn(C(F)F)n1)COC2` (stereo not shown) [Example 243, N-(amino(1-(difluoromethyl)-1H-pyrazol-3-yl)(oxo)-λ^6-sulfaneylidene)-2-(4,6-diisopropyl-1,3-dihydroisobenzofuran-5-yl) acetamide], the IC50 (class symbols) was 5 to 30 µM.
On to `CCc1c2c(cc(C(C)C)c1CC(=O)N=S(N)(=O)c1cc(C(C)(C)O)cs1)COC2` (stereo not shown) [Example 244, N-(amino (4-(2-hydroxypropan-2-yl)thiophen-2-yl)(oxo)-λ^6-sulfaneylidene)-2-(4-ethyl-6-isopropyl-1,3-dihydroisobenzofuran-5-yl) acetamide], for which, for the setting “class symbols”, the concentration for half-maximal inhibition (IC50) is 1 to 5 µM.
Same read-out and setting: the figure for `CCc1cc2c(c(C(C)C)c1CC(=O)N=S(N)(=O)c1cc(C(C)(C)O)cs1)COC2` (stereo not shown) [Example 245, N-(amino (4-(2-hydroxypropan-2-yl)thiophen-2-yl)(oxo)-λ^6-sulfaneylidene)-2-(6-ethyl-4-isopropyl-1,3-dihydroisobenzofuran-5-yl) acetamide] is 1 to 5 µM.
Still for that read-out and setting: next, `CC(C)c1cc2c(c(C(C)C)c1CC(=O)N=S(N)(=O)c1sc(C(C)(C)O)cc1F)COC2` (stereo not shown) [Example 246, N-(amino(3-fluoro-5-(2-hydroxypropan-2-yl)thiophen-2-yl)(oxo)-λ^6-sulfaneylidene)-2-(4,6-diisopropyl-1,3-dihydroisobenzofuran-5-yl) acetamide]: 0.04 to 0.2 µM; `CC(C)c1cc(C#N)c(F)c(C(C)C)c1CC(=O)N=S(N)(=O)c1cc(C(C)(O)CO)n(-c2ccccc2)n1` (stereo not shown) [Example 247, N-(amino(5-(1,2-dihydroxypropan-2-yl)-1-phenyl-1H-pyrazol-3-yl)(oxo)-λ^6-sulfaneylidene)-2-(4-cyano-3-fluoro-2,6-diisopropylphenyl)acetamide]: 1 to 5 µM; `CC(C)c1cc(C(F)F)nc(C(C)C)c1CC(=O)N=S(N)(=O)c1sc(CN(C)C)cc1F` (stereo not shown) [Example 248, N-(amino(5-((dimethylamino)methyl)-3-fluorothiophen-2-yl)(oxo)-λ^6-sulfaneylidene)-2-(6-(difluoromethyl)-2,4-diisopropylpyridin-3-yl)acetamide]: 1 to 5 µM.
With `CC(C)c1cc2c(c(C(C)C)c1CC(=O)N=S(N)(=O)c1sc(CN(C)C)cc1F)COC2` (stereo not shown) [Example 249, N-(amino(5-((dimethylamino)methyl)-3-fluorothiophen-2-yl)(oxo)-λ^6-sulfaneylidene)-2-(4,6-diisopropyl-1,3-dihydroisobenzofuran-5-yl)acetamide], the IC50 (class symbols) lay in the range of 1 to 5 µM.
The same measure, in the same setting: the figure for `CC(C)c1cc(C(F)F)cc(C(C)C)c1CC(=O)N=S(N)(=O)c1ncc(CN(C)C)cc1F` (stereo not shown) [Example 250] is 5 to 30 µM; for `CC(C)c1cc(COC2CCCC2)cc(C(C)C)c1CC(=O)N=S(N)(=O)c1cnc(C(C)(O)CO)s1` (stereo not shown) [Example 251, N-(amino(2-(1,2-dihydroxypropan-2-yl)thiazol-5-yl)(oxo)-λ^6-sulfaneylidene)-2-(4-((cyclopentyloxy)methyl)-2,6-diisopropylphenyl)acetamide] it is 0.2 to 1 µM; for `CC(C)c1cc2c(c(C(C)C)c1CC(=O)N=S(N)(=O)c1cnc(C(C)(O)CO)s1)COC2` (stereo not shown) [Example 252, N-(amino(2-(1,2-dihydroxypropan-2-yl)thiazol-5-yl) (oxo)-λ^6-sulfaneylidene)-2-(4,6-diisopropyl-1,3-dihydroisobenzofuran-5-yl)acetamide] it is 1 to 5 µM.
Take `CC(C)c1cc(-c2ccc3c(c2)CCOC3)cc(C(C)C)c1CC(=O)N=S(N)(=O)c1cnc(C(C)(O)CO)s1` (stereo not shown) [Example 253, N-(amino(2-(1,2-dihydroxypropan-2-yl)thiazol-5-yl) (oxo)-λ^6-sulfaneylidene)-2-(4-(isochroman-6-yl)-2,6-diisopropylphenyl)acetamide]: the half-maximal inhibitory concentration (IC50) (class symbols) lay in the range of 1 to 5 µM.
As to `CNCc1ccc(S(N)(=O)=NC(=O)Cc2c(C(C)C)cc(C(F)F)nc2C(C)C)cc1` (stereo not shown) [Example 254, N-(amino(4-((methylamino)methyl)phenyl)(oxo)-λ^6-sulfaneylidene)-2-(6-(difluoromethyl)-2,4-diisopropylpyridin-3-yl)acetamide], the IC50 (class symbols) lay within 5 to 30 µM.
Take `CNCc1ccc(S(N)(=O)=NC(=O)Cc2c(C(C)C)cc(C(F)F)cc2C(C)C)cc1` (stereo not shown) [Example 255, N-(amino(4-((methylamino)methyl)phenyl)(oxo)-λ^6-sulfaneylidene)-2-(4-(difluoromethyl)-2,6-diisopropylphenyl)acetamide]: the IC50 (class symbols) lay in the range of 5 to 30 µM.
For the compound `CC(C)c1cc2c(c(C(C)C)c1CC(=O)N=S(N)(=O)c1cnc(C(C)(C)O)s1)COC2=O` (stereo not shown) [Example 256, N-(amino(2-(2-hydroxypropan-2-yl)thiazol-5-yl) (oxo)-λ^6-sulfaneylidene)-2-(4,6-diisopropyl-1-oxo-1,3-dihydroisobenzofuran-5-yl)acetamide], the half-maximal inhibitory concentration (IC50) (class symbols) lay within 5 to 30 µM.
`CC(C)c1cc(C(F)F)cc(C(C)C)c1CC(=O)N=S(N)(=O)c1ccc(CN(C)C)cc1` (stereo not shown) [Example 257, N-(amino(4-((dimethylamino)methyl)phenyl) (oxo)-λ^6-sulfaneylidene)-2-(4-(difluoromethyl)-2,6-diisopropylphenyl)acetamide]: the IC50 (class symbols) lay within 1 to 5 µM.
